# Data taken from US6723710B2, “Compositions for inhibiting arginase activity” (The Trustees of the University of Pennsylvania, priority 1997, dated 2004).
# Entries after “also recorded” stand apart in the source; their conditions may differ.
# Key:
# liver arginase activity = assay: arginase activity in liver homogenate; type: biochemical, opossum
# Text: (§1) Tissue samples of the opossum internal anal sphincter muscle (IAS), adjoining rectal tissue, liver, and brain were homogenized using an ULTRATURRAX™ tissue homogenizer (Tekamr, Cincinnati, Ohio) in a solution comprising 10 millimolar Tris-HCl, 150 millimolar KCl, and 25 millimolar MnCl2, at pH 7.4. The homogenates were dialyzed overnight against the same solution. Dialyzed homogenates were centrifuged to remove insoluble material and concentrated with Amicon CENTRICON™ 30 microconcentrators to yield stock protein preparations having protein concentrations of 2.4 milligrams per milliliter for IAS smooth muscle, 3.6 milligrams per milliliter for rectal smooth muscle, 3 milligrams per milliliter for brain, and 17.5 milligrams per milliliter for liver. Protein concentrations were estimated with the Pierce Coomassie Protein Reagent kit using bovine serum albumin as a standard.
# (§2) Arginase activity in tissue homogenates was evaluated using the radioactive L-[guanidino^14C]arginine assay of Rüegg and Russell (1980, Anal. Biochem. 102:206-212). Assays were performed using a solution comprising 100 millimolar CHES-NaOH and 0.1 millimolar MnCl2 at pH 9.0. The reactions were initiated by addition of 5 microliters of tissue homogenate to 45 microliters of reaction mixture that contained the CHES buffer, the appropriate concentration of arginine (0.5 to 5 millimolar) and about 5.0×10^4 counts per minute of L-[guanidino-^14C]arginine. IAS, rectal muscle, and brain homogenates were incubated with the assay mixture at room temperature for one hour, and the liver sample was incubated for 5 minutes. The reactions were stopped by addition of 200 microliters of a stop solution containing 0.25 molar acetic acid, 7 molar urea, and 10 millimolar […] at pH 4.5. Arginase has essentially no activity at the low pH of the stop solution. [^14C] Urea was separated from non-reacted L-[guanidino-^14C]arginine by treatment with 200 μl of 1:1 v/v slurry of DOWEX™ 50W-X8 in water, and quantitated by adding 200 microliters of the supernatant from the DOWEX™ treatment to 3 milliliters of LIQUISCENT™ (National Diagnostics) for liquid scintillation counting in a Beckman LS 5000CE counter. The data were analyzed using double-reciprocal plots of the initial velocity measurements; standard errors were determined by regression analysis.
# (§3) Assays in the presence of the inhibitors N^ω-hydroxy-L-arginine (1 to 100 micromolar) and ABHA (0.05 to 100 micromolar) were performed as described above. The amino acid D-ornithine served as a control in these experiments, since this amino acid, unlike L-omithine, is not an inhibitor of arginase.
# [1] = system: penile corpus cavernosum smooth muscle; assay: organ bath, NANC nerve-mediated relaxation of penile corpus cavernosum tissue strips; design: species or system rabbit
# Text: Penile cavernosal tissue strips were obtained from male New Zealand white rabbits (3.0-3.5 kilogram body weight) and mounted in organ bath preparations, as described (Kim et al., 1991, J. Clin. Invest. 88:112-118). Tissues strips at optimal isometric tension were contracted using 40 nanomolar endothelin-1 and subjected to electrical field stimulation (EFS), by means of two platinum plate electrodes positioned on either side of the tissue and a current amplifier in series with a square pulse stimulator. Each stimulation period lasted 20 seconds with trains of square waves having a pulse duration of 0.5 milliseconds and a potential difference of 10 volts. Frequency was varied from 1 to 10 Hertz. For all experiments, NANC responses were isolated in tissue strips by treatment with indomethacin to inhibit vasoactive prostanoid synthesis, 10 micromolar bretylium to inhibit adrenergic neurotransmission, and 1 micromolar atropine to block muscarinic acetylcholine receptors. All tissues were first subject to EFS in the absence of ABHA, and then stimulations were repeated in the presence of increasing concentrations (0.1 to 1.0 millimolar) ABHA following a 20 minute incubation period. […] Responses were further analyzed by determining the ratios of the responses in the presence and absence of ABHA treatment.
# rectum arginase activity = assay: arginase activity in rectum homogenate; type: biochemical, opossum
# Text: as §1, §2, §3
# arginase = molecular target: T1, arginase (Rattus norvegicus, UniProt P07824); assay: isothermal titration calorimetry; type: binding; design: made in house
# T1 sequence (P07824 1-323): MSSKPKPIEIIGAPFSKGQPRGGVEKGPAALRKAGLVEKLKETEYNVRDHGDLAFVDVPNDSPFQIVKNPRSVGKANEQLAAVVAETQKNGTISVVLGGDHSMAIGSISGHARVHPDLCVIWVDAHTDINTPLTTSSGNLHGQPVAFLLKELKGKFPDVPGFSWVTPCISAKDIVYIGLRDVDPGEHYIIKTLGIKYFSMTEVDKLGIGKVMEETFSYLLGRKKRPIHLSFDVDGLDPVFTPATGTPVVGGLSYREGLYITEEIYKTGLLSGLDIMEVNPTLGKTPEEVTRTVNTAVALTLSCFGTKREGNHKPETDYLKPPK
# Experimental: All calorimetry experiments were conducted on a MCS isothermal calorimeter from MicroCal, Inc. (Northampton, Mass.). Arginase was exhaustively dialyzed against a solution comprising 100 micromolar MnCl2 and 50 millimolar bicine-NaOH (pH 8.5). […] Prior to the titration experiment, samples were de-gassed under vacuum for 5 minutes. […] The contents of the sample cell were titrated with 30-40 aliquots (2.5 microliters each) of inhibitor (an initial 1 microliters injection was made, but not used in data analysis). After each injection, the heat change was measured and converted to the corresponding enthalpy value. The reaction mixture was continuously stirred at 400 rotations per minute during titration. Control experiments were carried out by titrating the inhibitor into the buffer solution under identical experimental conditions. Data analysis was performed using ORIGIN™ software provided with the instrument. The calorimetric data are presented with the background titrations subtracted from the experimental data. The amount of heat produced per injection was calculated by integration of the area under each peak. The data were fit to the following equation, […]
# rat liver arginase = molecular target: T2, rat liver arginase (Rattus norvegicus, UniProt P07824); assay: continuous chromogenic arginase assay with substrate 1-nitro-3-guanidinobenzene (compound 18); type: biochemical; design: made in house; settings: 2 millimolar compound 18 as substrate; pseudo-turnover number, smaller = better inhibition
# T2 sequence (P07824 1-323): T1 sequence (P07824 1-323)
# Experimental: The activity of wild-type arginase was monitored spectrophotometrically using a Pharmacia BIOTECH ULTROSPEC™ 2000. Assays were performed in a solution comprising 100 micromolar MnCl2 and 50 millimolar bicine-NaOH (pH 9.0). […] Eadie-Hofstee plots were used to analyze the data.
smiles,measurement,setting,value
"N[C@@H](CCCCB(O)O)C(=O)O [compound 7, 2(S)-amino-6-boronohexanoic acid]",Ki,"liver arginase activity; arginine fixed at Km, assuming competitive inhibition, read-out: estimated Ki, liver arginase activity",190 nM
same,"times more potent than L-HO-Arg, liver",liver arginase activity; liver homogenate,5 times
same,potency against liver arginase activity relative to non-hepatic tissues,"liver arginase activity; liver versus IAS, rectum, brain",more potent inhibitor of non-hepatic than hepatic arginase activities
same,IC50,"liver arginase activity; liver, read-out: IC50 for inhibition of arginase activity, liver homogenate",440 nM
same,enhancement of relaxation in response to EFS,"[1]; 0.1 to 1.0 millimolar ABHA, 1 to 10 Hertz",significant enhancement; also recorded: significantly enhanced relaxation; also recorded: statistically significant
same,relaxation in the absence of electrical stimulation,[1]; corpus cavernosum strips contracted with endothelin-1,moderate relaxation
same,Ki,"rectum arginase activity; arginine fixed at Km, assuming competitive inhibition, read-out: estimated Ki, rectum arginase activity",26 nM
same,"times more potent than L-HO-Arg, rectum",rectum arginase activity; rectum homogenate,840 times
same,IC50,"rectum arginase activity; rectum, read-out: IC50 for inhibition of arginase activity, rectum homogenate",50 nM
same,Kd,"arginase; 100 micromolar MnCl2, 50 millimolar bicine pH 8.5, 25° C., read-out: Kd determined by titration calorimetry",110 nM
same,association constant (Ka),"arginase; pH 8.5, 25° C.",8.89×10^6 inverse molar
same,enthalpy change (ΔH) of binding,"arginase; pH 8.5, 25° C.",−12.97 kilocalories per mole
same,"stoichiometry (n), moles bound per mole of arginase monomer","arginase; pH 8.5, 25° C.",1.07
same,tnpseudo (moles of inhibitor/mole of arginase),rat liver arginase,0.7 ± 0.1 moles of inhibitor/mole of arginase
